Bridge positions count the residues as written; N and C are the ends. Square brackets hold non-standard residues; d marks the D form. Peptide text beside a SMILES is read from it. R8 = C=CCCCCCC[C@@](C)(N)C(=O)O; Cha = N[C@@H](CC1CCCCC1)C(=O)O; S5 = C=CCCC[C@](C)(N)C(=O)O; Ac3c = NC1(C(=O)O)CC1; Aib = CC(C)(N)C(=O)O
System: SJSA-1 cells
Experiment: Cell lysis by peptidomimetic macrocycles (LDH release)
Format: cell-based
Settings: SJSA-1, 1 h
Protocol: SJSA-1 cells were plated out one day in advance in clear flat-bottom plates (Costar, catalog number 353072) at 7500 cells/well with 100 ul/well of growth media, leaving row H columns 10-12 empty for media alone. On the day of the assay, media was exchanged with RPMI 1% FBS media, 90 uL of media per well.
10 mM stock solutions of the peptidomimetic macrocycles were prepared in 100% DMSO. Peptidomimetic macrocycles were then diluted serially in 100% DMSO, and then further diluted 20-fold in sterile water to prepare working stock solutions in 5% DMSO/water of each peptidomimetic macrocycle at concentrations ranging from 500 μM to 62.5 μM.
10 μL of each compound was added to the 90 uL of SJSA-1 cells to yield final concentrations of 50 μM to 6.25 μM in 0.5% DMSO-containing media. The negative control (non-lytic) sample was 0.5% DMSO alone and positive control (lytic) samples include 10 μM Melittin and 1% Triton X-100.
Cell plates were incubated for 1 hour at 37° C. After the 1 hour incubation, the morphology of the cells is examined by microscope and then the plates were centrifuged at 1200 rpm for 5 minutes at room temperature. 40 μL of supernatant for each peptidomimetic macrocycle and control sample is transferred to clear assay plates. LDH release is measured using the LDH cytotoxicity assay kit from Caymen, catalog #1000882.

SMILES	6.25 μM % Lysed cells (1 h LDH)	25 μM % Lysed cells (1 h LDH)	50 μM % Lysed cells (1 h LDH)
CC(=O)N[C@@H](Cc1ccccc1)C(=O)N[C@]1(C)CCCCCCC=CCCC[C@@](C)(C(=O)N[C@@H](C)C(=O)N[C@@H](C)C(=O)NC(C)(C)C(N)=O)NC(=O)[C@H](CC(C)C)NC(=O)C2(CC2)NC(=O)[C@H](CCC(=O)O)NC(=O)[C@H](Cc2c[nH]c3ccccc23)NC(=O)[C@H](Cc2ccc(O)cc2)NC(=O)[C@H](C)NC1=O [compound 22] (Ac-F[R8]AYWE[Ac3c]L[S5]AA[Aib]-NH2; staple 2-9)	0%	0%	0%
CC(C)CC[C@@H]1NC(=O)[C@H](CCC(N)=O)NC(=O)[C@H](C)NC(=O)[C@H](Cc2c[nH]c3ccccc23)NC(=O)[C@H](Cc2ccc(O)cc2)NC(=O)[C@H](CCC(=O)O)NC(=O)[C@](C)(NC(=O)[C@H](Cc2ccccc2)NC(=O)[C@@H](NC(=O)[C@H](CC(C)C)NC(=O)CN(C)C)[C@@H](C)O)CCCCCCC=CCCC[C@@](C)(C(=O)N[C@@H](CO)C(=O)N[C@@H](C)C(=O)N[C@@H](C)C(N)=O)NC1=O [compound 279]	6%	5%	6%
CC(=O)N[C@@H](Cc1ccccc1)C(=O)N[C@]1(C)CCCCCCC=CCCC[C@@](C)(C(=O)N[C@@H](Cc2c[nH]cn2)C(=O)N[C@@H](CCCNC(=N)N)C(=O)N[C@@H](Cc2ccccc2)C(=O)N[C@@H](CC2CCCCC2)C(N)=O)NC(=O)[C@H](CC(C)C)NC(=O)[C@H](CCC(N)=O)NC(=O)[C@H](Cc2c[nH]cn2)NC(=O)[C@H](Cc2c[nH]c3ccccc23)NC(=O)[C@H](Cc2c[nH]cn2)NC(=O)[C@H](Cc2c[nH]cn2)NC1=O [compound 55] (Ac-F[R8]HHWHQL[S5]HRF[Cha]-NH2; staple 2-9)	1%	9%	13%
CC(=O)N[C@@H](CC(C)C)C(=O)N[C@H](C(=O)N[C@@H](Cc1ccccc1)C(=O)N[C@]1(C)CCCCCCC=CCCC[C@@](C)(C(=O)N[C@@H](C)C(=O)N[C@H](C(=O)NCC(N)=O)C(C)C)NC(=O)[C@H](CC(C)C)NC(=O)[C@H](CCC(N)=O)NC(=O)[C@H](C)NC(=O)[C@H](Cc2c[nH]c3ccccc23)NC(=O)[C@H](Cc2ccc(O)cc2)NC(=O)[C@H](C)NC1=O)[C@@H](C)O (single isomer, unassigned) [compound 108]	0%	0%	1%
CC(=O)N[C@@H](Cc1ccccc1)C(=O)N[C@]1(C)CCCCCCC=CCCC[C@@](C)(C(=O)N[C@@H](C)C(=O)N[C@@H](C)C(=O)N[C@@H](Cc2ccccc2)C(N)=O)NC(=O)[C@H](CC(C)C)NC(=O)C2(CC2)NC(=O)[C@H](CCC(=O)O)NC(=O)[C@H](Cc2c[nH]c3ccccc23)NC(=O)[C@H](Cc2ccc(O)cc2)NC(=O)[C@H](C)NC1=O [compound 18] (Ac-F[R8]AYWE[Ac3c]L[S5]AAF-NH2; staple 2-9)	0%	2%	4%
CC(=O)N[C@@H](CCC(=O)O)C(=O)N[C@H](C(=O)N[C@@H](Cc1ccccc1)C(=O)N[C@]1(C)CCCCCCC=CCCC[C@@](C)(C(=O)N[C@@H](C)C(=O)N[C@@H](C)C(=O)N[C@@H](C)C(=O)N[C@@H](C)C(=O)N[C@@H](C)C(=O)N[C@H](C)C(N)=O)NC(=O)[C@H](CC(C)C)NC(=O)[C@H](CCC(N)=O)NC(=O)[C@H](C)NC(=O)[C@H](Cc2c[nH]c3ccccc23)NC(=O)[C@H](Cc2ccc(O)cc2)NC(=O)[C@H](CCC(=O)O)NC1=O)[C@@H](C)O (single isomer, unassigned) [compound 340]	0%	0%	0%

From US20200369728A1, “PEPTIDOMIMETIC MACROCYCLES AND USES THEREOF” (Aileron Therapeutics, Inc., priority 2015, published 2020)
